Assay results from patent US4620014A, “2-furylbutyrolactones and methods for using same” (priority 1983, dated 1986).

How the values were obtained:
L-1210 leukemia = assay: Anti-cancer study, L-1210 leukemia in BDF1 mice; assay type: in vivo, mouse; details: seven days
Text: Mice of the BDF1 strain are given an i.p. inoculation of 10^6 L-1210 leukemia cells on day 0. Twenty-four hours later, groups of 7 mice each are started on a […] treatment regimen of various doses of the compounds of this invention. The experiment is continued according to the guidelines provided under the National Cancer Institute protocol for screening new anti-cancer agents and T/C ratios (median or mean survival time of treated groups over median or mean survival time of controls) are calculated. A T/C value ≥1.25 (or 125%) is considered significant anticancer activity.
(§1) Mice of the BDF1 strain, inoculated with L-1210 leukemia cells, are treated for seven days with either 25, 50, 100, 200 or 400 mg/kg of Cpd. 1 or just buffer. The National Cancer Institute protocol for screening new anti-cancer agents is followed and T/C ratios are calculated.
as §1, with “either 100” for “either 25, 50, 100, 200 or 400”, “Cpd. 1, 20 mg/kg of 5-fluorouracil (5-FU), a known anti-cancer agent,” for “Cpd. 1”

L5178Y target cells = assay: MLTC assay of CTL activity, L5178Y target cells; assay type: cell-based, mouse
Text: A mixed lymphocyte tumor culture (MLTC) immunoassay, used to determine the cytotoxic lymphocyte (CTL) activity employs lymphocytes from either immunized (sensitized) mice or DBA/2 tumor dormant state animals in various stages of the tumor dormant state (TDS). The assay employs L5178Y target cells labeled with ^51 Chromium and effector cells (sensitized lymphocytes) from the above-mentioned sources. Effector-target cell ratios will vary with different experimental conditions and may or may not include irradiated stimulator L5178Y cells. Results are expressed as % lysis of target cells based on ratio of cpm of test group over cpm of total release (maximum) both of which are corrected for spontaneous release of ^51 Cr. The assay can be performed as an 8 or 18 hour release assay.
Ten days later the resultant tumor nodule, about 1 cm in size, is surgically excised. If the excision was successful, no subcutaneous tumors develop at the site of implantation. […] These mice are considered to be in the tumor dormant state.
The effect of Cpd. 1 on cytotoxic lymphocyte (CTL) activity is measured using five DBA/2 mice in the early stage of the TDS, 10 days after challenge with viable L5178Y tumor cells. Six doses of Cpd. 1, 0.001, 0.01, 0.1, 1.0, 10, or 100 μg/ml or just buffer are added in 100 μl volumes to MLTC microculture wells containing washed spleen lymphocytes from the DBA/2 mice, effector, and L5178Y target cells at varying E/T ratios. The MLTC reaction is performed in the presence or absence of irradiated L5178Y stimulator cells.
Five DBA/2 mice in the early stage of the TDS, 10 days after challenge with viable L5178Y tumor cells were used to measure the effect of Cpd. 1 on CTL activity. Two doses of Cpd. 1, 10, or 100 μg/ml, or just buffer were added in 100 μl volumes to the MLTC microculture wells containing washed spleen lymphocytes from the DBA/2 mice, effector and L5178Y target cells at varying E/T ratios. The MLTC reaction was performed in the presence or absence of irradiated L5178Y stimulator cells.
DBA/2 mice in the early stage of TDS, […] with viable L5178Y tumor cells, were used to measure the effect of Cpd. 2 on CTL activity. Cpd. 2, 0.1, 1.0, 10 or 100 μg/ml, or just buffer was added in 100 μl volumes to MLTC microculture wells containing washed spleen lymphocytes from DBA/2 mice, effector, and L5178Y target cells at varying E/T ratios. The MLTC reaction was performed in the presence or absence of irradiated L5178Y stimulator cells.
An MLTC assay is performed to assess the CTL activity and tumor target cell specificity of Cpd. 1. Tumor dormant spleen cells and normal spleen cells of DBA/2 mice are used as effector cells. Irradiated L5178Y cells are used as stimulator cells. ^51 Cr-labeled L5178Y cells and FLC-745 cells are used as target cells. The effector/target ratios studied are 100:1, 30:1 and 10:1.

Cc1ccc(C2(O)C(=O)OC3C(O)COC32O)o1.Cc1ccc(C2(O)C(=O)OC3C(O)COC32O)o1.O=C1CCC(=O)O1 (centres unmarked) [Cpd. 1]
Median Survival Time (L-1210 leukemia; 25 mg/kg): 20 days | Median Survival Time (L-1210 leukemia; 50 mg/kg): 21 days | Median Survival Time (L-1210 leukemia; 100 mg/kg): 30 days | Median Survival Time (L-1210 leukemia; 200 mg/kg): 30 days | Median Survival Time (L-1210 leukemia; 400 mg/kg): 25 days | % Lysis (L5178Y target cells; 0.001 μg/ml, E/T 10:1, TDS DBA/2, with stimulator cells): 16.7% | % Lysis (L5178Y target cells; 0.001 μg/ml, E/T 10:1, TDS DBA/2, without stimulator cells): 3.9% | % Lysis (L5178Y target cells; 0.001 μg/ml, E/T 30:1, TDS DBA/2, with stimulator cells): 40.2% | % Lysis (L5178Y target cells; 0.001 μg/ml, E/T 30:1, TDS DBA/2, without stimulator cells): 12.2% | % Lysis (L5178Y target cells; 0.001 μg/ml, E/T 100:1, TDS DBA/2, with stimulator cells): 71.1% | % Lysis (L5178Y target cells; 0.001 μg/ml, E/T 100:1, TDS DBA/2, without stimulator cells): 23.4% | % Lysis (L5178Y target cells; 0.01 μg/ml, E/T 10:1, TDS DBA/2, with stimulator cells): 20.6% | % Lysis (L5178Y target cells; 0.01 μg/ml, E/T 10:1, TDS DBA/2, without stimulator cells): 3.5% | % Lysis (L5178Y target cells; 0.01 μg/ml, E/T 30:1, TDS DBA/2, with stimulator cells): 55.8% | % Lysis (L5178Y target cells; 0.01 μg/ml, E/T 30:1, TDS DBA/2, without stimulator cells): 15.7% | % Lysis (L5178Y target cells; 0.01 μg/ml, E/T 100:1, TDS DBA/2, with stimulator cells): 77.1% | % Lysis (L5178Y target cells; 0.01 μg/ml, E/T 100:1, TDS DBA/2, without stimulator cells): 26.0% | % Lysis (L5178Y target cells; 0.1 μg/ml, E/T 10:1, TDS DBA/2, with stimulator cells): 20.2% | % Lysis (L5178Y target cells; 0.1 μg/ml, E/T 10:1, TDS DBA/2, without stimulator cells): 3.5% | % Lysis (L5178Y target cells; 0.1 μg/ml, E/T 30:1, TDS DBA/2, with stimulator cells): 51.0% | % Lysis (L5178Y target cells; 0.1 μg/ml, E/T 30:1, TDS DBA/2, without stimulator cells): 14.8% | % Lysis (L5178Y target cells; 0.1 μg/ml, E/T 100:1, TDS DBA/2, with stimulator cells): 79.0% | % Lysis (L5178Y target cells; 0.1 μg/ml, E/T 100:1, TDS DBA/2, without stimulator cells): 31.6% | % Lysis (L5178Y target cells; 1.0 μg/ml, E/T 10:1, TDS DBA/2, with stimulator cells): 15.6% | % Lysis (L5178Y target cells; 1.0 μg/ml, E/T 10:1, TDS DBA/2, without stimulator cells): 4.6% | % Lysis (L5178Y target cells; 1.0 μg/ml, E/T 30:1, TDS DBA/2, with stimulator cells): 46.0% | % Lysis (L5178Y target cells; 1.0 μg/ml, E/T 30:1, TDS DBA/2, without stimulator cells): 20.0% | % Lysis (L5178Y target cells; 1.0 μg/ml, E/T 100:1, TDS DBA/2, with stimulator cells): 71.5% | % Lysis (L5178Y target cells; 1.0 μg/ml, E/T 100:1, TDS DBA/2, without stimulator cells): 40.1% | % Lysis (L5178Y target cells; 10 μg/ml, E/T 6.25:1, TDS DBA/2, with stimulator cells): 60.5% | % Lysis (L5178Y target cells; 10 μg/ml, E/T 6.25:1, TDS DBA/2, without stimulator cells): .7% | % Lysis (L5178Y target cells; 10 μg/ml, E/T 10:1, TDS DBA/2, with stimulator cells): 15.9% | % Lysis (L5178Y target cells; 10 μg/ml, E/T 10:1, TDS DBA/2, without stimulator cells): 4.6% | % Lysis (L5178Y target cells; 10 μg/ml, E/T 12.5:1, TDS DBA/2, with stimulator cells): 67.1% | % Lysis (L5178Y target cells; 10 μg/ml, E/T 12.5:1, TDS DBA/2, without stimulator cells): 6.9% | % Lysis (L5178Y target cells; 10 μg/ml, E/T 25:1, TDS DBA/2, with stimulator cells): 72.0% | % Lysis (L5178Y target cells; 10 μg/ml, E/T 25:1, TDS DBA/2, without stimulator cells): 8.1% | % Lysis (L5178Y target cells; 10 μg/ml, E/T 30:1, TDS DBA/2, with stimulator cells): 42.0% | % Lysis (L5178Y target cells; 10 μg/ml, E/T 30:1, TDS DBA/2, without stimulator cells): 16.8% | % Lysis (L5178Y target cells; 10 μg/ml, E/T 50:1, TDS DBA/2, with stimulator cells): 75.7% | % Lysis (L5178Y target cells; 10 μg/ml, E/T 50:1, TDS DBA/2, without stimulator cells): 12.8% | % Lysis (L5178Y target cells; 10 μg/ml, E/T 100:1, TDS DBA/2, with stimulator cells): 74.3% | % Lysis (L5178Y target cells; 10 μg/ml, E/T 100:1, TDS DBA/2, without stimulator cells): 36.3% | % Lysis (L5178Y target cells; 100 μg/ml, E/T 6.25:1, TDS DBA/2, with stimulator cells): 56.3% | % Lysis (L5178Y target cells; 100 μg/ml, E/T 6.25:1, TDS DBA/2, without stimulator cells): 6.1% | % Lysis (L5178Y target cells; 100 μg/ml, E/T 10:1, TDS DBA/2, with stimulator cells): 21.2% | % Lysis (L5178Y target cells; 100 μg/ml, E/T 10:1, TDS DBA/2, without stimulator cells): 8.6% | % Lysis (L5178Y target cells; 100 μg/ml, E/T 12.5:1, TDS DBA/2, with stimulator cells): 75.7% | % Lysis (L5178Y target cells; 100 μg/ml, E/T 12.5:1, TDS DBA/2, without stimulator cells): 11.1% | % Lysis (L5178Y target cells; 100 μg/ml, E/T 25:1, TDS DBA/2, with stimulator cells): 79.8% | % Lysis (L5178Y target cells; 100 μg/ml, E/T 25:1, TDS DBA/2, without stimulator cells): 16.6% | % Lysis (L5178Y target cells; 100 μg/ml, E/T 30:1, TDS DBA/2, with stimulator cells): 54.2% | % Lysis (L5178Y target cells; 100 μg/ml, E/T 30:1, TDS DBA/2, without stimulator cells): 18.7% | % Lysis (L5178Y target cells; 100 μg/ml, E/T 50:1, TDS DBA/2, with stimulator cells): 71.6% | % Lysis (L5178Y target cells; 100 μg/ml, E/T 50:1, TDS DBA/2, without stimulator cells): 21.8% | % Lysis (L5178Y target cells; 100 μg/ml, E/T 100:1, TDS DBA/2, with stimulator cells): 87.3% | % Lysis (L5178Y target cells; 100 μg/ml, E/T 100:1, TDS DBA/2, without stimulator cells): 42.0% | % Lysis (L5178Y target cells; E + D (TDS effector, no stimulator), E/T 10:1): 9.0% | % Lysis (L5178Y target cells; E + D (TDS effector, no stimulator), E/T 30:1): 29.8% | % Lysis (L5178Y target cells; E + D (TDS effector, no stimulator), E/T 100:1): 52.8% | % Lysis (L5178Y target cells; E + S + D (TDS effector, stimulator), E/T 10:1): 34.9% | % Lysis (L5178Y target cells; E + S + D (TDS effector, stimulator), E/T 30:1): 69.2% | % Lysis (L5178Y target cells; E + S + D (TDS effector, stimulator), E/T 100:1): 82.3% | % Lysis (L5178Y target cells; N + D (normal effector, no stimulator), E/T 10:1): -10.3% | % Lysis (L5178Y target cells; N + D (normal effector, no stimulator), E/T 30:1): -11.4% | % Lysis (L5178Y target cells; N + D (normal effector, no stimulator), E/T 100:1): -12.4% | % Lysis (L5178Y target cells; N + S + D (normal effector, stimulator), E/T 10:1): -10.9% | % Lysis (L5178Y target cells; N + S + D (normal effector, stimulator), E/T 30:1): -9.7% | % Lysis (L5178Y target cells; N + S + D (normal effector, stimulator), E/T 100:1): -9.5% | CTL activity of effector cells (L5178Y target cells; in the presence of stimulator cells (Example 28)): significant specific enhancement of CTL activity | CTL activity (L5178Y target cells; several concentrations, any E/T ratio, with or without stimulator cells, TDS): significant increase in CTL activity
